These are literature values, as cited in US20130195986A1, “New Particles of Tetracyclines and Protecting Agent” (HOVIONE INTER LTD, priority 2010, published 2013).

In the data set the test system is staining of the teeth and bones and pigmentation of the thyroid gland. The following applies: rats; simultaneous administration of ascorbic acid (vitamin C) with minocycline.

On to `O=C1O[C@H]([C@@H](O)CO)C(O)=C1O` [ascorbic acid], for which the “staining of the teeth and bones and pigmentation of the thyroid gland” value is “prevented staining of the teeth and bones and pigmentation of the thyroid gland”.
